# From patent US8802700B2 (Vertex Pharmaceuticals Incorporated, priority 2010, dated 2014)
# pEC50: −log10 of the molar value.
# Target: T1, ΔF508-CFTR (Homo sapiens, UniProt P13569, DEL508-508)
# T1 construct: expressed in transfected cells
# Test: Membrane potential optical assay (FRET voltage-sensor dyes, VIPR), identification of potentiator compounds
# Type: cell-based
# Conditions: Table 3; assay not given
# In short: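 NIH3T3 mouse fibroblasts stably expressing ΔF508-CFTR, cultured 24 h at 27 °C, were loaded with FRET voltage dyes CC2-DMPE and DiSBAC2(3). Double-addition format: first addition of Cl⁻-free (gluconate) medium with or without compound; membrane-potential change read as fluorescence on VIPR II.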
# T1 sequence (P13569 with tags, fused parts or gaps DEL508-508): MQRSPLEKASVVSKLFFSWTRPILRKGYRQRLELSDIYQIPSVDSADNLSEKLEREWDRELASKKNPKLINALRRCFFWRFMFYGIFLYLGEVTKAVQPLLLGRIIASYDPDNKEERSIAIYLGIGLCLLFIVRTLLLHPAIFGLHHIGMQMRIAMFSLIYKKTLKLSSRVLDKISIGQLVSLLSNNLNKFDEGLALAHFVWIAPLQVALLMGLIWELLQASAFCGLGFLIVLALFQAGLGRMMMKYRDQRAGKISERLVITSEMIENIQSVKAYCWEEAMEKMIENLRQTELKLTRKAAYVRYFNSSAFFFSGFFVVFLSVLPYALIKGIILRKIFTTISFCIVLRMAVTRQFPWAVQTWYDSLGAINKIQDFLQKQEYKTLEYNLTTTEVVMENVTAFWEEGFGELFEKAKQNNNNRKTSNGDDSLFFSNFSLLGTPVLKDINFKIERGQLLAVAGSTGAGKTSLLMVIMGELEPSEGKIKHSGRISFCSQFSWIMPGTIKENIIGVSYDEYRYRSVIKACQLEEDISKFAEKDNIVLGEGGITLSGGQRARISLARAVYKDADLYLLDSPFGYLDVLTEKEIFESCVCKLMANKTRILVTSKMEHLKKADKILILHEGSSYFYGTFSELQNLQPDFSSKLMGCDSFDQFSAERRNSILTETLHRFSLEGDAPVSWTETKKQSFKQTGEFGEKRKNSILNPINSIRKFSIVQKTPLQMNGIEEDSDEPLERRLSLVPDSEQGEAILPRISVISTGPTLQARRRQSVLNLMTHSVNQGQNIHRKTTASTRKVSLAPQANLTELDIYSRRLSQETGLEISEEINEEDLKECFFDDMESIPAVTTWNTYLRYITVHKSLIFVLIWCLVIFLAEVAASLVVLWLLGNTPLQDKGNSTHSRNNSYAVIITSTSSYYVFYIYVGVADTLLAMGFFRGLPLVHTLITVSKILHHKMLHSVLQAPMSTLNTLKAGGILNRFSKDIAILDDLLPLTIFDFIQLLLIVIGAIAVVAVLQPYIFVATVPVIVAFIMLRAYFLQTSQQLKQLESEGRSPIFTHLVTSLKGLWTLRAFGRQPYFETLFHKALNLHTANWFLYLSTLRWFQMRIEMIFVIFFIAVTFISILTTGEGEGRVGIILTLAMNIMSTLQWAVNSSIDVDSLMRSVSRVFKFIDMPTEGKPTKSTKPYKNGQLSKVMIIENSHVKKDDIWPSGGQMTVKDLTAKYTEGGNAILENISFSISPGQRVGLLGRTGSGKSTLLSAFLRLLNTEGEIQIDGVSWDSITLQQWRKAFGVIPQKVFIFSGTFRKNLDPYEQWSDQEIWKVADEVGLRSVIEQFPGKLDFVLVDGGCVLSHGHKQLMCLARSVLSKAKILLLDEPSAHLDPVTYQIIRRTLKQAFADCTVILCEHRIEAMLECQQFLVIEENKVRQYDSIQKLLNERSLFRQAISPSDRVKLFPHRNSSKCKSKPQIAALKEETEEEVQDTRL
row,pEC50,Structure (SMILES)
1,4.60 to 5.00,"CC(=O)Nc1cccc(-c2ccccc2NC(=O)c2c[nH]c3ccccc3c2=O)c1 [Compound 25, N-[2-(3-acetylaminophenyl)phenyl]-4-oxo-1H-quinoline-3-carboxamide]"
2,> 5.00,"CCOC(=O)Nc1ccc(CC)c(NC(=O)c2c[nH]c3ccccc3c2=O)c1 [Compound 472, [4-ethyl-3-[(4-oxo-1H-quinolin-3-yl)carbonylamino]phenyl]aminoformic acid ethyl ester]"

# Same assay, conditions: Table 3; assay not given; read-out: % Activity (% Efficacy, relative efficacy)
row,Emax [%],Structure (SMILES)
1,< 25,"CC(C)(C)c1cc(C(C)(C)C)c(NC(=O)c2c[nH]c3c(C(F)(F)F)cccc3c2=O)cc1O [Compound 580, N-(5-hydroxy-2,4-ditert-butyl-phenyl)-4-oxo-8-(trifluoromethyl)-1H-quinoline-3-carboxamide]"
2,25 to 100,"CN(C)c1ccc2[nH]cc(C(=O)Nc3cc(O)c(C(C)(C)C)cc3C(C)(C)C)c(=O)c2c1 [Compound 544, 6-dimethylamino-N-(5-hydroxy-2,4-ditert-butyl-phenyl)-4-oxo-1H-quinoline-3-carboxamide]"
3,< 25,"CC(C)(C)c1cc(C(C)(C)C)c(NC(=O)c2c[nH]c3ccc(C#N)cc3c2=O)cc1O [Compound 525, 6-cyano-N-(5-hydroxy-2,4-ditert-butyl-phenyl)-4-oxo-1H-quinoline-3-carboxamide]"
4,25 to 100,"CSc1ccccc1NC(=O)c1c[nH]c2ccccc2c1=O [Compound 229, N-(2-methylsulfanylphenyl)-4-oxo-1H-quinoline-3-carboxamide]"
5,25 to 100,"CC(=O)Nc1cccc(-c2ccccc2NC(=O)c2c[nH]c3ccccc3c2=O)c1 [Compound 25, N-[2-(3-acetylaminophenyl)phenyl]-4-oxo-1H-quinoline-3-carboxamide]"
6,25 to 100,"Cc1cccc(C)c1NC(=O)c1c[nH]c2ccccc2c1=O [Compound 315, N-(2,6-dimethylphenyl)-4-oxo-1H-quinoline-3-carboxamide]"
7,25 to 100,"Cc1c(NC(=O)c2c[nH]c3ccccc3c2=O)cccc1C(F)(F)F [Compound 387, N-[2-methyl-3-(trifluoromethyl)phenyl]-4-oxo-1H-quinoline-3-carboxamide]"
8,< 25,"CCc1cccc2c(=O)c(C(=O)Nc3cc(O)c(C(C)(C)C)cc3F)c[nH]c12 [Compound 605, 8-ethyl-N-(2-fluoro-5-hydroxy-4-tert-butyl-phenyl)-4-oxo-1H-quinoline-3-carboxamide]"
9,25 to 100,"CCOc1ccccc1-c1cc(C(C)(C)C)c(O)cc1NC(=O)c1c[nH]c2ccccc2c1=O [Compound 23, N-[2-(2-ethoxyphenyl)-5-hydroxy-4-tert-butyl-phenyl]-4-oxo-1H-quinoline-3-carboxamide]"
10,< 25,"O=C(Nc1ccc(-c2ccccc2)cn1)c1c[nH]c2ccccc2c1=O [Compound 402, 4-oxo-N-(5-phenyl-2-pyridyl)-1H-quinoline-3-carboxamide]"
11,< 25,"CC(CO)(CO)c1ccc(NC(=O)c2c[nH]c3ccccc3c2=O)cc1 [Compound 590, N-[4-[2-hydroxy-1-(hydroxymethyl)-1-methyl-ethyl]phenyl]-4-oxo-1H-quinoline-3-carboxamide]"
12,25 to 100,"CC(C)(C)c1c[nH]c2cc(NC(=O)c3c[nH]c4ccc(F)cc4c3=O)ccc12 [Compound 554, 6-fluoro-4-oxo-N-(3-tert-butyl-1H-indol-6-yl)-1H-quinoline-3-carboxamide]"
13,25 to 100,"O=C(Nc1ccc(S(=O)(=O)N2CCOCC2)cc1)c1c[nH]c2ccccc2c1=O [Compound 276, N-(4-morpholinosulfonylphenyl)-4-oxo-1H-quinoline-3-carboxamide]"
14,25 to 100,"Cc1cc(C(C)(C)C)c(O)cc1NC(=O)c1c[nH]c2ccc(F)cc2c1=O [Compound 683, 6-fluoro-N-(5-hydroxy-2-methyl-4-tert-butyl-phenyl)-4-oxo-1H-quinoline-3-carboxamide]"
15,25 to 100,"O=C(Nc1ccc2cc[nH]c2c1)c1c[nH]c2cccc(O)c2c1=O [Compound 116, 5-hydroxy-N-(1H-indol-6-yl)-4-oxo-1H-quinoline-3-carboxamide]"
16,25 to 100,"Cc1cccc2[nH]cc(C(=O)Nc3ccc(N4CC[C@H](F)C4)cc3C(F)(F)F)c(=O)c12 [Compound 626, (S)-N-(4-(3-fluoropyrrolidin-1-yl)-2-(trifluoromethyl)phenyl)-5-methyl-4-oxo-1,4-dihydroquinoline-3-carboxamide]"
17,> 100,"CC(C)(C)c1ccc(NC(=O)c2c[nH]c3ccccc3c2=O)c(C(C)(C)C)c1O [Compound 594, N-(3-hydroxy-2,4-ditert-butyl-phenyl)-4-oxo-1H-quinoline-3-carboxamide]"
18,25 to 100,"CC(C)(C)c1cc2cc[nH]c2cc1NC(=O)c1c[nH]c2cc(C#N)ccc2c1=O [Compound 558, 7-cyano-4-oxo-N-(5-tert-butyl-1H-indol-6-yl)-1H-quinoline-3-carboxamide]"
19,25 to 100,"CCOc1cccc(-c2cc(C(C)(C)C)c(O)cc2NC(=O)c2c[nH]c3ccccc3c2=O)c1 [Compound 43, N-[2-(3-ethoxyphenyl)-5-hydroxy-4-tert-butyl-phenyl]-4-oxo-1H-quinoline-3-carboxamide]"
20,25 to 100,"CN(C)[C@H]1CCN(c2ccc(NC(=O)c3c[nH]c4ccccc4c3=O)c(C(F)(F)F)c2)C1 [Compound 513, (S)-N-(4-(3-(dimethylamino)pyrrolidin-1-yl)-2-(trifluoromethyl)phenyl)-4-oxo-1,4-dihydroquinoline-3-carboxamide]"
21,25 to 100,"Nc1cc(NC(=O)c2c[nH]c3ccccc3c2=O)ccc1OC(F)(F)F [Compound 58, N-[3-amino-4-(trifluoromethoxy)phenyl]-4-oxo-1H-quinoline-3-carboxamide]"

row,Emax [%],Structure (SMILES)
1,> 100,"C=C(C)c1ccccc1NC(=O)c1c[nH]c2ccccc2c1=O [Compound 445, N-(2-isopropenylphenyl)-4-oxo-1H-quinoline-3-carboxamide]"
2,25 to 100,"O=C(Nc1ccc2cc[nH]c2c1)c1c[nH]c2ccccc2c1=O [Compound 33, N-(1H-indol-6-yl)-4-oxo-1H-quinoline-3-carboxamide]"
3,25 to 100,"CC(C)(C)c1cc2cc[nH]c2cc1NC(=O)c1c[nH]c2cc(OC(F)(F)F)ccc2c1=O [Compound 632, 4-oxo-N-(5-tert-butyl-1H-indol-6-yl)-7-(trifluoromethoxy)-1H-quinoline-3-carboxamide]"
4,25 to 100,"O=C(Nc1cccc(C(F)(F)F)c1)c1c[nH]c2ccccc2c1=O [Compound 164, 4-oxo-N-[3-(trifluoromethyl)phenyl]-1H-quinoline-3-carboxamide]"
5,25 to 100,"CC(C)(C)OC(=O)NCc1cc(NC(=O)c2c[nH]c3ccccc3c2=O)ccc1C(C)(C)C [Compound 465, [5-[(4-oxo-1H-quinolin-3-yl)carbonylamino]-2-tert-butyl-phenyl]methylaminoformic acid tert-butyl ester]"
6,25 to 100,"Cc1c[nH]c2cc(NC(=O)c3c[nH]c4ccccc4c3=O)ccc12 [Compound 113, N-(3-methyl-1H-indol-6-yl)-4-oxo-1H-quinoline-3-carboxamide]"
7,25 to 100,"CC(=O)N1CCc2ccc(NC(=O)c3c[nH]c4ccccc4c3=O)cc2C1 [Compound 303, N-(2-acetyl-1,2,3,4-tetrahydroisoquinolin-7-yl)-4-oxo-1H-quinoline-3-carboxamide]"
8,25 to 100,"O=C(Nc1ccc(Sc2ccccc2)cc1)c1c[nH]c2ccccc2c1=O [Compound 470, 4-oxo-N-(4-phenylsulfanylphenyl)-1H-quinoline-3-carboxamide]"
9,25 to 100,"O=C(Nc1ccccc1)c1c[nH]c2ccccc2c1=O [Compound 215, 4-Oxo-N-phenyl-1H-quinoline-3-carboxamide]"
10,25 to 100,"CCOC(=O)Nc1ccc(CC)c(NC(=O)c2c[nH]c3ccccc3c2=O)c1 [Compound 472, [4-ethyl-3-[(4-oxo-1H-quinolin-3-yl)carbonylamino]phenyl]aminoformic acid ethyl ester]"
11,25 to 100,"CC1CCN(c2ccc(NC(=O)c3c[nH]c4ccccc4c3=O)c(C(F)(F)F)c2)C1 (stereo not shown) [Compound 555, N-[4-(3-methylpyrrolidin-1-yl)-2-(trifluoromethyl)phenyl]-4-oxo-1H-quinoline-3-carboxamide]"
12,< 25,"NS(=O)(=O)c1ccccc1NC(=O)c1c[nH]c2ccccc2c1=O [Compound 78, 4-oxo-N-(2-sulfamoylphenyl)-1H-quinoline-3-carboxamide]"
13,25 to 100,"CC(C)(C)c1cc(C(C)(C)C)c(NC(=O)c2c[nH]c3ccc(S(=O)(=O)N4CCCC4)cc3c2=O)cc1O [Compound 255, N-(5-hydroxy-2,4-ditert-butyl-phenyl)-4-oxo-6-pyrrolidin-1-ylsulfonyl-1H-quinoline-3-carboxamide]"
14,25 to 100,"CC1(c2cc(F)c(NC(=O)c3cnc4ccccc4c3O)cc2O)CCCCCCC1 [Compound 403, N-[2-fluoro-5-hydroxy-4-(1-methylcyclooctyl)-phenyl]-4-hydroxy-quinoline-3-carboxamide]"
15,25 to 100,"Cc1ccc(-c2ccccc2NC(=O)c2c[nH]c3ccccc3c2=O)cc1C [Compound 261, N-[2-(3,4-dimethylphenyl)phenyl]-4-oxo-1H-quinoline-3-carboxamide]"
16,25 to 100,"N#Cc1cc2ccc(NC(=O)c3c[nH]c4ccccc4c3=O)cc2[nH]1 [Compound 270, N-(2-cyano-1H-indol-6-yl)-4-oxo-1H-quinoline-3-carboxamide]"
17,25 to 100,"O=C(Nc1cc(OCc2ccccc2)c(C2CCCCC2)cc1C(F)(F)F)c1c[nH]c2ccccc2c1=O [Compound 654, N-[5-benzyloxy-4-cyclohexyl-2-(trifluoromethyl)phenyl]-4-oxo-1H-quinoline-3-carboxamide]"
18,25 to 100,"CC1(C)CCCN(c2ccc(NC(=O)c3c[nH]c4ccccc4c3=O)c(C(F)(F)F)c2)C1 [Compound 612, N-[4-(3,3-dimethyl-1-piperidyl)-2-(trifluoromethyl)phenyl]-4-oxo-1H-quinoline-3-carboxamide]"
19,25 to 100,"CC(C)c1ccccc1NC(=O)c1c[nH]c2ccccc2c1=O [Compound 36, N-(2-isopropylphenyl)-4-oxo-1H-quinoline-3-carboxamide]"
20,25 to 100,"Cc1ccc2[nH]cc(C(=O)Nc3ccc(N4[C@H](C)CC[C@H]4C)cc3C(F)(F)F)c(=O)c2c1 [Compound 569, N-(4-((2R,5R)-2,5-dimethylpyrrolidin-1-yl)-2-(trifluoromethyl)phenyl)-6-methyl-4-oxo-1,4-dihydroquinoline-3-carboxamide]"
